According to PubChem BioAssay (NCI):
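The compound was tested at five concentrations on cells cultured in 96-well plates, with a 48-hour exposure period. GI50 marks 50% less growth. Definition used: TGI = concentration required for complete inhibition of growth.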 Where a SMILES comes first, the peptide text is derived from it. The star is where a group is joined. Boc = CC(C)(C)OC(=O)*

Legend:
Assay in all cases: DTP human tumour cell line panel, 48 h
[1] = tested on: OVCAR-3 ovarian
[2] = tested on: MDA-MB-231 breast
[3] = tested on: MALME-3M melanoma
[4] = tested on: OVCAR-5 ovarian
[5] = tested on: ACHN renal
[6] = tested on: MDA-MB-435
[7] = tested on: SN12C renal
[8] = tested on: RPMI-8226 leukemia
[9] = tested on: SNB-75 CNS
[10] = tested on: 786-0 renal
[11] = tested on: T-47D breast

| Structure (SMILES) | TGI [1] [µM] | TGI [2] [µM] | TGI [3] [µM] | TGI [4] [µM] | TGI [5] [µM] | TGI [6] [µM] | TGI [7] [µM] | TGI [8] [µM] | TGI [9] [µM] | TGI [10] [µM] | TGI [11] [µM] | GI50 [9] [µM] |
| --- | --- | --- | --- | --- | --- | --- | --- | --- | --- | --- | --- | --- |
| COC(=O)C(Cc1c[nH]c2ccccc12)NC(=O)C(Cc1c[nH]c2ccccc12)NC(=O)C(Cc1c[nH]c2ccccc12)NC(=O)C(Cc1c[nH]c2ccccc12)NC(=O)C(Cc1c[nH]c2ccccc12)NC(=O)C(Cc1c[nH]c2ccccc12)NC(=O)C(Cc1c[nH]c2ccccc12)NC(=O)C(Cc1c[nH]c2ccccc12)NC(=O)OC(C)(C)C (centres undefined) (Boc-WWWWWWWW-OMe; configuration not given here) | > 100 | > 100 | > 100 | > 100 | > 100 | > 100 | > 100 | > 100 | > 100 | > 100 | – | – |
| O=C1CC(c2ccccc2)n2cccc21 (centres undefined) | > 100 | > 100 | – | > 100 | > 100 | > 100 | > 100 | > 100 | > 100 | > 100 | > 100 | – |
| O=c1/c(=C/c2ccc(-c3ccc(Cl)cc3Cl)o2)sc2n1[C@@H](c1ccc(Cl)cc1)C=C(c1cc(F)c(Cl)cc1Cl)N=2 | – | 59.2 | > 100 | > 100 | > 100 | > 100 | > 100 | > 100 | > 100 | > 100 | > 100 | – |
| C=C(C)[C@@H]1CCC2=C[C@H](OC2=O)[C@@]2(C)C[C@@H]2C2=CC(C)=C(O2)[C@H]1O | > 75 | > 75 | > 75 | > 75 | > 75 | > 75 | > 75 | – | > 75 | > 75 | > 75 | – |
| Cc1nc2c(=O)n(C)ncc2[nH]1 | > 100 | > 100 | – | > 100 | > 100 | > 100 | > 100 | > 100 | > 100 | > 100 | > 100 | – |
| CCCC(=O)OC1C(CO)OC(n2cc(F)c(=O)[nH]c2=O)C1F (centres undefined) | > 100 | – | > 100 | > 100 | > 100 | > 100 | > 100 | > 100 | > 100 | > 100 | > 100 | – |
| Nc1nc2c3nc(Nc4ccccc4)sc3nc(=O)n2c2sc(Nc3ccccc3)nc12 | – | – | > 100 | – | > 100 | – | > 100 | > 100 | > 100 | > 100 | – | – |
| COc1ccc(SCc2cc(OCc3ccccc3)c(OCc3ccccc3)c(OCc3ccccc3)c2)cc1 | 3.04 | 2.7 | 3.37 | 3.4 | 3.1 | 3.33 | 3.49 | – | 3 | 2.89 | – | – |
| C=C1CCC([N+](=O)[O-])[C@](C)(N=O)CC[C@@H]2C1CC2(C)C (some centres undefined) | 56.3 | – | 49.5 | 36.1 | > 100 | – | > 100 | > 100 | 45.3 | 42.6 | – | – |
| CO/N=C(\C)CCC#Cc1ccccc1C(=O)OC | > 10 | > 10 | > 10 | > 10 | > 10 | > 10 | > 10 | > 10 | – | > 10 | > 10 | – |
| C=CCc1cccc2cc(C(=O)Nc3ccccn3)c(=N)oc12 | > 100 | > 100 | – | > 100 | > 100 | > 100 | > 100 | > 100 | > 100 | > 100 | > 100 | – |
| CCC(=O)Nc1ccc(N2C(=O)C(Cl)C2c2ccc(SC)cc2)cc1 (centres undefined) | > 100 | – | > 100 | > 100 | > 100 | > 100 | > 100 | > 100 | > 100 | > 100 | > 100 | – |
| O=C1c2ccc(O)c(O)c2C(=O)c2c(O)ccc(O)c21 | 49.7 | – | – | 76.5 | 52.5 | – | 56.7 | > 100 | – | > 100 | – | – |
| CCN1CCC(O)(c2ccc(Cl)cc2)C(C(=O)c2ccc(Cl)cc2)C1 (centres undefined) | > 100 | – | – | > 100 | > 100 | – | > 100 | 64.2 | > 100 | > 100 | – | – |
| COc1ccccc1C(=O)c1c(NCc2ccccc2)c(=O)c1=O | > 100 | > 100 | 75.9 | > 100 | > 100 | > 100 | > 100 | > 100 | > 100 | > 100 | – | – |
| CC(=O)O[C@H]1[C@H](OC(=O)CC(C)(O)CC(=O)O)C[C@]2(C)C3=C(CCC2C1(C)C)[C@]1(C)CC[C@H]([C@H]2CC[C@H](C(C)(C)O)OC2O)[C@@]1(C)[C@@H](O)C3 (some centres undefined) | 30.4 | 32.4 | 57.3 | 31.7 | 31.2 | 35.1 | 32.1 | 43.8 | – | 37.3 | 40.2 | – |
| C=C1C2C[C@@H]3O[C@H]4C[C@H]5O[C@@]6(C[C@@H]7O[C@]8(C[C@H](C)[C@@H]9O[C@@H]%10CC(CO)O[C@@H]%10C[C@@H]9O8)C[C@H](C)[C@@H]7O6)C[C@H]5O[C@H]4[C@H](C)[C@H]3OC(=O)C[C@H]3CC[C@@H]4OC5[C@H]6O[C@]7(CC[C@H]8CC(=C)[C@H](CC[C@@H](C[C@H]1C)O2)O8)CC6O[C@@H]5[C@@H](O7)[C@H]4O3 (some centres undefined) | > 1 | > 1 | > 1 | > 1 | > 1 | < 0.0001 | > 1 | > 1 | > 1 | > 0.413 | – | – |
| CCOC(=O)c1ccc(N=c2sc3ccccc3nc2Nc2ccc(C(=O)OCC)cc2)cc1 | – | > 100 | > 100 | > 100 | > 100 | > 100 | > 100 | > 100 | > 100 | 64.8 | > 100 | – |
| CO/N=C(\C)c1cccc(Nc2c3ccccc3nc3occc23)c1 | 19 | 26.1 | 34.5 | 46.8 | – | 6 | 38 | 27.7 | – | 29.7 | 28.8 | – |
| CC(C)/C(Cl)=N\OC(=O)Nc1cccc(Cl)c1 | 10.8 | 30.3 | 24.1 | 18.3 | 18.4 | – | 32.4 | 25 | 33.2 | 29.1 | 68.5 | – |

| Structure (SMILES) | TGI [1] [µM] | TGI [2] [µM] | TGI [3] [µM] | TGI [4] [µM] | TGI [5] [µM] | TGI [6] [µM] | TGI [7] [µM] | TGI [8] [µM] | TGI [9] [µM] | TGI [10] [µM] | TGI [11] [µM] | GI50 [9] [µM] |
| --- | --- | --- | --- | --- | --- | --- | --- | --- | --- | --- | --- | --- |
| OC(c1cc(C23CC4CC(CC(C4)C2)C3)nc2c(Cl)cc(Cl)cc12)C1CCCCN1 (centres undefined) | 3.3 | 2.78 | 3.71 | 3.17 | 2.94 | – | 3.13 | – | 2.96 | 3.21 | – | – |
| C(=C\c1ccco1)/c1cccc(/C=C/c2ccco2)n1 | > 50 | – | > 50 | > 50 | > 50 | > 50 | > 50 | > 50 | 33.1 | > 50 | – | – |
| CCC(C#N)NCc1cccc(CNC(C#N)CC)c1 (centres undefined) | > 100 | > 100 | > 100 | 34.2 | > 100 | > 100 | > 100 | – | – | > 100 | > 100 | – |
| O=C(Nc1nc(C23CC4CC(CC(C4)C2)C3)cs1)c1cc2ccccc2oc1=O | > 100 | > 100 | > 100 | > 100 | > 100 | > 100 | > 100 | > 100 | > 100 | > 100 | – | – |
| COCN1C(=O)[C@@H]2CCCN2C(=O)c2cc(N)ccc21 | – | > 100 | > 100 | > 100 | > 100 | > 100 | > 100 | – | > 100 | > 100 | > 100 | – |
| CC(=O)O[C@H]1C(=O)[C@@]2(C)C(C(OC(=O)c3ccccc3)C3[C@@H](O)C(OC(=O)[C@@H](O)[C@H](NC(=O)c4ccccc4)c4ccc(C(F)(F)F)cc4)C(C)=C1C3(C)C)[C@]1(OC(C)=O)CO[C@@H]1C[C@@H]2O (some centres undefined) | > 25 | – | > 25 | > 25 | > 25 | – | > 25 | > 25 | > 25 | > 25 | – | – |
| COc1ccc(/C=C2\CCC(C)C3=C2N=c2s/c(=C/c4cccc(Br)c4)c(=O)n2C3c2ccc(OC)c(OC)c2)cc1OC (centres undefined) | – | > 100 | – | > 100 | > 100 | > 100 | > 100 | > 100 | – | > 100 | – | – |
| COc1cc(/C=c2\sc3n(c2=O)C(c2ccc(Cl)cc2)C2=C(CCCC2C)N=3)cc(OC)c1OC (centres undefined) | – | > 100 | – | > 100 | > 100 | > 100 | > 100 | > 100 | > 100 | > 100 | – | – |
| Cc1cc2c([nH]c3ccccc32)c2c1OC(C)(C)C1C3CC(C)(C)Oc4c(C)cc5c6ccccc6n(c5c43)C21 (centres undefined) | > 100 | – | > 100 | > 100 | > 100 | – | > 100 | > 100 | > 100 | > 100 | – | – |
| N#Cc1ccc(-n2c3ccccc3c3ccc4c(c32)C(=O)C=CC4=O)cc1 | 11.1 | 8.25 | – | 34.8 | 3.01 | 4.39 | 14.2 | > 100 | > 53.3 | 3.16 | > 100 | – |
| Cc1cc(S(=O)(=O)Nc2nc3ccccc3c(=O)n2N)c(S)cc1Cl | > 100 | > 100 | 56.9 | > 100 | > 100 | > 100 | > 100 | > 100 | 92.7 | 81.6 | – | 13.3 |
| CN(C)c1nc(Cl)c2c(-c3ccccc3)c(-c3ccccc3)oc2n1 | – | > 100 | – | > 100 | > 100 | > 100 | > 100 | 60.8 | > 100 | > 100 | > 100 | – |
| CCN(CC)C(=O)C(C)n1cc(C)c(=O)[nH]c1=O (centres undefined) | > 100 | – | > 100 | > 100 | > 100 | – | > 100 | > 100 | 98.6 | > 100 | – | – |
| COI1NC(=O)c2ccccc21 | > 100 | > 100 | > 100 | > 100 | > 100 | > 100 | > 100 | > 100 | > 100 | > 100 | – | – |
| CCOC(=O)c1ccc(NCC#CCN2CCCCC2)cc1 | > 100 | > 100 | > 100 | > 100 | > 100 | > 100 | > 100 | > 100 | – | > 100 | > 100 | – |
| C[C@@H]1CC[C@@H]2[C@@H](C1)O[C@@H]([C@H](C)OCc1ccccc1)SC2(C)C | – | 40.1 | 53.1 | 31.7 | 37.2 | > 100 | 42.4 | 35.1 | 49.2 | 62.1 | 32.9 | – |
| N#Cc1c(N)nc(Sc2ccccc2N)c(C#N)c1-c1ccc(Cl)cc1 | 31.9 | 35.7 | 27.7 | > 87.3 | 39.5 | 37.5 | 40.4 | 28.8 | – | 42.7 | 4.24 | – |
| O=C(NNC(=S)NC1CCCCC1)c1csc(NC(=S)NC2CCCCC2)n1 | 16.9 | 45.1 | 26 | 40.1 | 15.3 | 26.6 | 25.9 | 46.7 | – | 19.9 | 74.6 | – |
| O=C1CSC(c2cccc([N+](=O)[O-])c2)N1c1ccc(-n2c(-c3ccccc3)nc3ccccc3c2=O)cc1 (centres undefined) | > 100 | > 100 | > 100 | > 100 | > 100 | > 100 | > 100 | > 100 | – | > 100 | > 100 | – |
| CC(C)(C)OC(=O)N1C(c2cccnc2)=CC[C@H]2C3CC=C(c4cccnc4)[C@@]3(C)CC[C@@H]21 (some centres undefined) | 14.2 | – | 13.3 | 28.6 | 11.3 | 5.7 | 13 | 5.05 | 19.7 | 16.4 | 29.8 | – |
